ChEMBL document CHEMBL1137553, “An expeditious synthesis of tamoxifen, a representative SERM (selective estrogen receptor modulator), via the three-component coupling reaction among aromatic aldehyde, cinnamyltrimethylsilane, and beta-chlorophenetole” (Bioorg Med Chem, 2007)
Converted amounts (≈) assume the structure as drawn.

Legend:
[1] = test system: HL-60; test: Growth inhibition of human HL60 cells after 4 hrs by MTT assay; format: functional, cell-based; settings: HL-60, 4 h
[2] = test system: HL-60; test: Antiproliferative activity against human HL60 cells assessed as cell viability at 5 ug/ml after 4 hrs by MTT assay; format: functional; settings: HL-60, 4 h, read-out: Activity
[3] = test system: HL-60; test: Antiproliferative activity against human HL60 cells assessed as cell viability at 20 ug/ml after 4 hrs by MTT assay; format: functional; settings: HL-60, 4 h, read-out: Activity
[4] = test system: HL-60; test: Antiproliferative activity against human HL60 cells assessed as cell viability at 1 ug/ml after 4 hrs by MTT assay; format: functional; settings: HL-60, 4 h, read-out: Activity
[5] = test system: HL-60; test: Antiproliferative activity against human HL60 cells assessed as cell viability after 4 hrs by MTT assay; format: functional
[6] = test system: HL-60; test: Antiproliferative activity against human HL60 cells assessed as cell viability at 10 ug/ml after 4 hrs by MTT assay; format: functional; settings: HL-60, 4 h, read-out: Activity

CC/C(=C(/c1ccc(Br)cc1)c1ccc(OCCN(C)C)cc1)c1ccccc1
IC50 [1]: 6 µg/mL (≈ 13.3 µM)
viability at 5 µg/mL [2]: 59.2%
viability at 20 µg/mL [3]: 7.01%
viability at 1 µg/mL [4]: 99.9%
Activity [5]: 100%
viability at 10 µg/mL [6]: 13.2%

CC/C(=C(/c1ccc(OCCN(C)C)cc1)c1cccc(I)c1)c1ccccc1
IC50 [1]: 19 µg/mL (≈ 38.2 µM)
viability at 5 µg/mL [2]: 104%
viability at 20 µg/mL [3]: 36%
viability at 1 µg/mL [4]: 109%
Activity [5]: 100%
viability at 10 µg/mL [6]: 97.2%

CC/C(=C(\c1ccc(I)cc1)c1ccc(OCCN2CCCC2)cc1)c1ccccc1 [IDOXIFENE]
IC50 [1]: 7.7 µg/mL (≈ 14.7 µM)
viability at 5 µg/mL [2]: 82.7%
viability at 20 µg/mL [3]: 8.72%
viability at 1 µg/mL [4]: 106%
Activity [5]: 100%
viability at 10 µg/mL [6]: 25.5%

CC/C(=C(\c1ccccc1)c1ccc(OCCN(C)C)cc1)c1ccccc1 [TAMOXIFEN]
IC50 [1]: 5.9 µg/mL (≈ 15.9 µM)
viability at 5 µg/mL [2]: 53.5%
viability at 20 µg/mL [3]: 5.45%
viability at 1 µg/mL [4]: 96.2%
Activity [5]: 100%
viability at 10 µg/mL [6]: 15.9%
